Like-named read-outs stand apart in the source and are kept apart here. Blank lines part the entries; values can stand above or below the compound they belong to.
Assays:
[1] = system: murine leukemia (L1210) cells; assay: Inhibition of proliferation of murine leukemia; assay type: cell-based
[2] = system: human T-lymphocyte Molt4/C8 cells; assay: Inhibition of proliferation of human T-lymphocyte Molt4/C8 cells; assay type: cell-based
[3] = system: human T-lymphocyte CEM cells; assay: Inhibition of proliferation of human T-lymphocyte CEM cells; assay type: cell-based
[4] = system: K562 (human chronic myelogenous leukemia) cells; assay: K562 cell growth inhibition after 24 h; assay type: cell-based; settings: read-out: IC50 determined for 24 h of growth
[5] = system: K562 (human chronic myelogenous leukemia) cells; assay: Flow cytometric analysis of cell cycle distribution in K562 cells; assay type: cell-based; settings: 24 h, compound at its 24 h IC50, propidium iodide
tubulin = assay: Inhibition of tubulin polymerization; settings: read-out: Tubulin assembly IC50 ± SD; Tubulin was at 10 μM
[6] = system: L1210, FM3A, Molt/4 and CEM cells; assay: Antiproliferative activity summarised over the panel of four cancer cell lines; assay type: cell-based, murine and human; settings: for IC50: read-out: IC50 (span over the four cell lines); for Antiproliferative activity (in words): four cell lines
[7] = system: murine mammary carcinoma (FM3A) cells; assay: Inhibition of proliferation of murine mammary carcinoma; assay type: cell-based

Compound: 2-amino-3-(3,4,5-trimethoxybenzoyl)-6-methoxycarbonyl-4,5,6,7-tetrahydrothieno[b]pyridine [Compound 4f]
- fold more potent than 4g ([1]; L1210 cells): 4 fold
- fold more potent than 4g ([2]; Molt4 cells): 6 fold
- fold more potent than 4g [3]: 5 fold
- IC50 ([4]; K562 cells, 24 h): 0.07 µM
- Effect on cell cycle distribution [5]: marked increase in the percentage of cells blocked in the G2-M phase
- IC50 (tubulin): 0.6 ± 0.02 µM

Compound: COc1ccc(/C=C\c2cc(OC)c(OC)c(OC)c2)cc1O [CA-4 (1), combretastatin A-4, reference compound]
- IC50 ([1]; Mus musculus, L1210, read-out: IC50 L1210): 0.0028 ± 0.0011 µM

Compound: COc1cc(C(=O)c2c(N)sc3ccccc23)cc(OC)c1OC [Compound 2a, reference compound]
- IC50 (tubulin): 1.9 ± 0.1 µM

Compound: COc1cc(C(=O)c2c(N)sc3c2CCN(C)C3)cc(OC)c1OC [Compound 4a]
- IC50 [6]: > 10 µM

Compound: CCN1CCc2c(sc(N)c2C(=O)c2cc(OC)c(OC)c(OC)c2)C1 [Compound 4b]
- IC50 [6]: 1.7 to 2.1 µM

Compound: CCOC(=O)N1CCc2c(sc(N)c2C(=O)c2cc(OC)c(OC)c(OC)c2)C1 [Compound 4g]
- IC50 ([4]; Homo sapiens, K562, 24 h): 0.08 µM
- Effect on cell cycle distribution [5]: marked increase in the percentage of cells blocked in the G2-M phase
- IC50 [6]: 0.057 to 0.44 µM

Compound: CCCOC(=O)N1CCc2c(sc(N)c2C(=O)c2cc(OC)c(OC)c(OC)c2)C1 [Compound 4h]
- fold reduction in activity on lengthening the alkyl chain (vs 4g) ([1]; L1210 cells): 10 fold
- fold reduction in activity on lengthening the alkyl chain (vs 4g) [7]: 25 fold
- fold reduction in activity on lengthening the alkyl chain (vs 4g) ([2]; Molt-4 cells): 1.5 fold
- fold reduction in activity on lengthening the alkyl chain (vs 4g) [3]: 3 fold

Compound: COc1cc(C(=O)c2c(N)sc3c2CCN(C(=O)NC(C)C)C3)cc(OC)c1OC [Compound 4m]
- Antiproliferative activity (in words) [6]: inactive

Compound: COc1cc(C(=O)c2c(N)sc3c2CCN(C(=S)NC(C)C)C3)cc(OC)c1OC [Compound 4u]
- Antiproliferative activity (in words) [6]: inactive

Compound: COc1cc(C(=O)c2c(N)sc3cnccc23)cc(OC)c1OC [Compound 5, 2-amino-3-(3′,4′,5′-trim-ethoxybenzoyl)thieno[2,3-c]pyridine]
- fold less potent than 2a [3]: 13 fold
- IC50 ([4]; Homo sapiens, K562, 24 h): 0.5 µM
- Effect on cell cycle distribution [5]: marked increase in the percentage of cells blocked in the G2-M phase
- IC50 (tubulin): 5.4 ± 0.4 µM

The next lines start with the values.

- IC50 [6]: > 10 µM
Compound: CCCN1CCc2c(sc(N)c2C(=O)c2cc(OC)c(OC)c(OC)c2)C1 [Compound 4c]

- IC50 [6]: > 10 µM
Compound: COc1cc(C(=O)c2c(N)sc3c2CCN(Cc2ccccc2)C3)cc(OC)c1OC [Compound 4d]

- IC50 [6]: 1.1 to 3.9 µM
Compound: COc1cc(C(=O)c2c(N)sc3c2CCN(C(C)=O)C3)cc(OC)c1OC [Compound 4e]

- IC50 [6]: 1.6 to 4.9 µM
Compound: CNC(=S)N1CCc2c(sc(N)c2C(=O)c2cc(OC)c(OC)c(OC)c2)C1 [Compound 4s]

- IC50 [6]: 4.8 to 6.9 µM
Compound: CCNC(=S)N1CCc2c(sc(N)c2C(=O)c2cc(OC)c(OC)c(OC)c2)C1 [Compound 4t]

- IC50 [6]: 0.73 to 1.1 µM
Compound: COc1cc(C(=O)c2c(N)sc3c2CCN(C(=S)NC2CCCCC2)C3)cc(OC)c1OC [Compound 4w]

Reference: article PMC2606048 (Bioorganic & medicinal chemistry letters, 2008)
